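Assay format: 96-well plates, 48-hour exposure. TGI denotes the concentration required for complete inhibition of growth.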
Tests used:
Assay in all cases: NCI anticancer screen, dose series, 48 h
[1] = system: 786-0 renal
[2] = system: A498 renal
[3] = system: ACHN renal
[4] = system: BT-549 breast
[5] = system: CAKI-1 renal
[6] = system: CCRF-CEM leukemia
[7] = system: COLO 205 colon
[8] = system: DU-145 prostate
[9] = system: EKVX NSCLC
[10] = system: HCC-2998 colon
[11] = system: HCT-116 colon
[12] = system: HCT-15 colon
[13] = system: HL-60(TB) leukemia
[14] = system: HOP-62 NSCLC
[15] = system: HOP-92 NSCLC
[16] = system: HS 578T breast
[17] = system: HT29 colon
[18] = system: IGROV1 ovarian
[19] = system: K-562 leukemia
[20] = system: KM12 colon
[21] = system: LOX IMVI melanoma
[22] = system: MALME-3M melanoma
[23] = system: MCF7 breast
[24] = system: MDA-MB-231 breast
[25] = system: MDA-MB-435
[26] = system: MDA-N
[27] = system: MOLT-4 leukemia
[28] = system: NCI-H226 lung
[29] = system: NCI-H23 lung
[30] = system: NCI-H460 lung
[31] = system: NCI-H522 lung
[32] = system: NCI/ADR-RES ovarian
[33] = system: OVCAR-3 ovarian
[34] = system: OVCAR-4 ovarian
[35] = system: OVCAR-5 ovarian
[36] = system: OVCAR-8 ovarian
[37] = system: PC-3 prostate
[38] = system: RPMI-8226 leukemia
[39] = system: RXF 393 renal
[40] = system: SF-268 CNS
[41] = system: SF-295 CNS
[42] = system: SF-539 CNS
[43] = system: SK-MEL-2 melanoma
[44] = system: SK-MEL-28 melanoma
[45] = system: SK-MEL-5 melanoma
[46] = system: SK-OV-3 ovarian
[47] = system: SN12C renal
[48] = system: SNB-75 CNS
[49] = system: SR leukemia
[50] = system: SW-620 colon
[51] = system: T-47D breast
[52] = system: TK-10 renal
[53] = system: U251 CNS
[54] = system: UACC-257 melanoma
[55] = system: UACC-62 melanoma
[56] = system: A549 NSCLC
[57] = system: DLD-1 colon
[58] = system: DMS 273 small cell lung
[59] = system: HOP-18 NSCLC
[60] = system: KM20L2 colon
[61] = system: SNB-19 CNS
[62] = system: UO-31 renal
[63] = system: XF 498 CNS
[64] = system: M14 melanoma

## O=C1CC(O)c2cscc21 (stereo not given)
[1]
  TGI: > 100 µM
[2]
  TGI: > 100 µM
[3]
  TGI: > 100 µM
[4]
  TGI: > 100 µM
[5]
  TGI: > 100 µM
[6]
  TGI: 45.8 µM
[7]
  TGI: > 100 µM
[8]
  TGI: > 100 µM
[9]
  TGI: > 100 µM
[10]
  TGI: > 100 µM
[11]
  TGI: > 100 µM
[12]
  TGI: > 100 µM
[13]
  TGI: > 100 µM
[14]
  TGI: > 100 µM
[15]
  TGI: > 100 µM
[16]
  TGI: > 100 µM
[17]
  TGI: > 100 µM
[18]
  TGI: > 100 µM
[19]
  TGI: > 100 µM
[20]
  TGI: > 100 µM
[21]
  TGI: > 100 µM
[22]
  TGI: > 100 µM
[23]
  TGI: > 100 µM
[24]
  TGI: > 100 µM
[25]
  TGI: > 100 µM
[26]
  TGI: > 100 µM
[27]
  TGI: > 100 µM
[28]
  TGI: > 100 µM
[29]
  TGI: > 100 µM
[30]
  TGI: > 100 µM
[31]
  TGI: > 100 µM
[32]
  TGI: > 100 µM
[33]
  TGI: > 100 µM
[34]
  TGI: > 100 µM
[35]
  TGI: > 100 µM
[36]
  TGI: > 100 µM
[37]
  TGI: > 100 µM
[38]
  TGI: > 100 µM
[39]
  TGI: > 100 µM
[40]
  TGI: > 100 µM
[41]
  TGI: > 100 µM
[42]
  TGI: > 100 µM
[43]
  TGI: > 100 µM
[44]
  TGI: > 100 µM
[45]
  TGI: > 100 µM
[46]
  TGI: > 100 µM
[47]
  TGI: > 100 µM
[48]
  TGI: > 100 µM
[49]
  TGI: > 100 µM
[50]
  TGI: > 100 µM
[51]
  TGI: > 100 µM
[52]
  TGI: > 100 µM
[53]
  TGI: > 100 µM
[54]
  TGI: > 100 µM
[55]
  TGI: > 100 µM

## O=C(c1ccc(Cl)cc1)C1OC12C(=O)Nc1c(Cl)cc(Cl)cc12 (stereo not given)
[1]
  TGI: > 100 µM
[2]
  TGI: > 100 µM
[56]
  TGI: > 100 µM
[3]
  TGI: > 100 µM
[6]
  TGI: 66.3 µM
[57]
  TGI: > 100 µM
[58]
  TGI: > 100 µM
[9]
  TGI: 65.2 µM
[10]
  TGI: > 100 µM
[12]
  TGI: > 100 µM
[59]
  TGI: > 100 µM
[14]
  TGI: > 100 µM
[17]
  TGI: > 100 µM
[19]
  TGI: > 100 µM
[20]
  TGI: > 100 µM
[60]
  TGI: > 100 µM
[21]
  TGI: > 100 µM
[22]
  TGI: > 100 µM
[28]
  TGI: > 100 µM
[29]
  TGI: > 100 µM
[30]
  TGI: > 100 µM
[33]
  TGI: 77.8 µM
[35]
  TGI: > 100 µM
[36]
  TGI: > 100 µM
[38]
  TGI: 45.4 µM
[40]
  TGI: > 100 µM
[41]
  TGI: > 100 µM
[42]
  TGI: > 100 µM
[43]
  TGI: > 100 µM
[44]
  TGI: > 100 µM
[45]
  TGI: > 100 µM
[47]
  TGI: > 100 µM
[61]
  TGI: > 100 µM
[48]
  TGI: 83.4 µM
[50]
  TGI: > 100 µM
[52]
  TGI: > 100 µM
[53]
  TGI: > 100 µM
[54]
  TGI: > 100 µM
[62]
  TGI: > 100 µM
[63]
  TGI: 87.8 µM

## C=CCC(CCC(C)=O)(C(=O)OCC)C(=O)OCC
[1]
  TGI: > 100 µM
[2]
  TGI: > 100 µM
[56]
  TGI: > 100 µM
[3]
  TGI: > 100 µM
[4]
  TGI: > 100 µM
[5]
  TGI: > 100 µM
[6]
  TGI: > 100 µM
[7]
  TGI: > 100 µM
[8]
  TGI: > 100 µM
[9]
  TGI: > 100 µM
[10]
  TGI: > 100 µM
[11]
  TGI: > 100 µM
[12]
  TGI: > 100 µM
[13]
  TGI: > 100 µM
[14]
  TGI: > 100 µM
[15]
  TGI: > 100 µM
[16]
  TGI: > 100 µM
[17]
  TGI: > 100 µM
[18]
  TGI: > 100 µM
[19]
  TGI: > 100 µM
[20]
  TGI: > 100 µM
[64]
  TGI: > 100 µM
[22]
  TGI: > 100 µM
[23]
  TGI: > 100 µM
[24]
  TGI: > 100 µM
[25]
  TGI: > 100 µM
[26]
  TGI: > 100 µM
[27]
  TGI: > 100 µM
[28]
  TGI: > 100 µM
[29]
  TGI: > 100 µM
[30]
  TGI: > 100 µM
[31]
  TGI: > 100 µM
[32]
  TGI: > 100 µM
[33]
  TGI: > 100 µM
[34]
  TGI: > 100 µM
[35]
  TGI: > 100 µM
[36]
  TGI: > 100 µM
[37]
  TGI: > 100 µM
[38]
  TGI: > 100 µM
[39]
  TGI: > 100 µM
[40]
  TGI: > 100 µM
[41]
  TGI: > 100 µM
[42]
  TGI: > 100 µM
[43]
  TGI: > 100 µM
[44]
  TGI: > 100 µM
[45]
  TGI: > 100 µM
[46]
  TGI: > 100 µM
[47]
  TGI: > 100 µM
[61]
  TGI: > 100 µM
[48]
  TGI: > 100 µM
[49]
  TGI: > 100 µM
[50]
  TGI: > 100 µM
[51]
  TGI: > 100 µM
[52]
  TGI: > 100 µM
[53]
  TGI: > 100 µM
[54]
  TGI: > 100 µM
[55]
  TGI: > 100 µM
[62]
  TGI: > 100 µM

## COC(=O)/C=C(\C(=O)OC)c1cc(C)c2cc(C(C)C)ccc(C)c1-2
[1]
  TGI: > 100 µM
[2]
  TGI: > 100 µM
[56]
  TGI: > 100 µM
[3]
  TGI: > 100 µM
[4]
  TGI: > 100 µM
[5]
  TGI: > 100 µM
[6]
  TGI: > 100 µM
[7]
  TGI: > 100 µM
[8]
  TGI: > 100 µM
[9]
  TGI: > 100 µM
[10]
  TGI: 87.5 µM
[11]
  TGI: > 100 µM
[12]
  TGI: 27.5 µM
[13]
  TGI: > 100 µM
[14]
  TGI: > 100 µM
[15]
  TGI: 77.9 µM
[16]
  TGI: > 100 µM
[17]
  TGI: 26.7 µM
[18]
  TGI: > 100 µM
[19]
  TGI: > 100 µM
[20]
  TGI: > 100 µM
[21]
  TGI: > 100 µM
[64]
  TGI: > 100 µM
[22]
  TGI: > 100 µM
[23]
  TGI: 72.8 µM
[24]
  TGI: > 100 µM
[25]
  TGI: > 100 µM
[26]
  TGI: 46.3 µM
[27]
  TGI: > 100 µM
[28]
  TGI: > 100 µM
[29]
  TGI: > 100 µM
[30]
  TGI: > 100 µM
[31]
  TGI: 50.3 µM
[32]
  TGI: > 100 µM
[33]
  TGI: > 100 µM
[34]
  TGI: > 100 µM
[35]
  TGI: > 100 µM
[36]
  TGI: > 100 µM
[37]
  TGI: > 100 µM
[38]
  TGI: > 100 µM
[39]
  TGI: > 100 µM
[40]
  TGI: > 100 µM
[41]
  TGI: > 100 µM
[42]
  TGI: > 100 µM
[43]
  TGI: > 100 µM
[44]
  TGI: > 100 µM
[45]
  TGI: 80 µM
[46]
  TGI: > 100 µM
[47]
  TGI: > 100 µM
[61]
  TGI: > 100 µM
[49]
  TGI: > 100 µM
[50]
  TGI: > 100 µM
[51]
  TGI: > 100 µM
[52]
  TGI: > 100 µM
[53]
  TGI: > 100 µM
[55]
  TGI: > 100 µM
[62]
  TGI: > 100 µM

Source: PubChem BioAssay (NCI)
